Read-outs that look alike come from different tables or passages of the source.
Columns and labels:
PC-3 PIP [1] = test system: PC-3 PIP; set-up: method as in Benesova et al., 2018 [33]; settings: Athymic nude BALB/c (PC-3 PIP), ref Benesova et al., 2018 [33], cited from earlier work
LNCaP [2] = test system: LNCaP; set-up: method as in Benesova et al., 2015 [31]; settings: BALB/c nu/nu (LNCaP), ref Benesova et al., 2015 [31], cited from earlier work
tumour = test system: tumour; set-up: method as in Fendler et al. [36]; settings: after 4 days; ref Fendler et al. [36]; cited from earlier work
LNCaP [3] = settings: cited from earlier work; for Kidney Uptake / Tumour Uptake: NOD-SCID gamma (LNCaP), ref Kuo et al., 2018 [30]
LNCaP [4] = test system: LNCaP; set-up: method as in Kuo et al., 2018 [30]; settings: 18.5 MBq; NOD rag gamma (LNCaP); median survival; ref Kuo et al., 2018 [30]; cited from earlier work
RM1-PGLS [5] = test system: RM1-PGLS; set-up: method as in Fendler et al., 2017 [36]; settings: C57BL/6 (RM1-PGLS), median survival, ref Fendler et al., 2017 [36], cited from earlier work
LNCaP [6] = settings: cited from earlier work; for Kidney Uptake / Tumour Uptake: BALB/c nu/nu (LNCaP), ref Kelly et al., 2018 [32]
PC-3 PIP [7] = test system: PC-3 PIP; set-up: method as in Umbricht et al., 2018 [60]; settings: Athymic nude BALB/c (PC-3 PIP), median survival, ref Umbricht et al., 2018 [60], cited from earlier work
PC-3 PIP [8] = test system: PC-3 PIP; set-up: method as in Banerjee et al., 2019 [3]; settings: 111 MBq; NOD-SCID gamma (PC-3 PIP); median survival; ref Banerjee et al., 2019 [3]; cited from earlier work
C4-2 xenografts = assay: Biodistribution of radioligand in mice with C4-2 xenografts; type: in vivo, Hsd:Athymic Nude-Foxn1^nu mice; settings: free ^212Pb control
Description: For the biodistribution and therapy studies, 105 male Hsd:Athymic Nude-Foxn1^nu mice bred at the Department of Comparative Medicine at the Norwegian Radium Hospital (Oslo University Hospital, Oslo, Norway) were used. For the toxicity study, 13 male BALB/cJRj mice from Janvier Labs (Le Genest-Saint-Isle, France) were used. The studies were approved by the Institutional Committee on Research Animal Care (Department of Comparative Medicine, Oslo University Hospital) and the Norwegian Food Safety Authority (Brumunddal, Norway, approval: FOTS ID 22197, 20/49651). All procedures and experiments involving animals in this study were performed in accordance with the Interdisciplinary Principles and Guidelines for the Use of Animals in Research, Marketing and Education (New York Academy of Sciences, New York, USA) and the EU Directive 2010/63/EU for animal experiments as well as the ARRIVE guidelines. The animals were maintained under specific pathogen-free conditions with ad libitum access to food and water. Cages (1–5 mice per cage) were housed in a scantainer, which was maintained at constant temperature (24 °C) and humidity (60%). The mice were around 4–6 weeks in age and weighed 25–35 g at the start of the study.
Mice were inoculated subcutaneously in both flanks with 10 × 10^6 C4-2 cells in supplement-free RPMI1640 medium mixed 1:1 with Matrigel Matrix (Corning, NY, USA) in a total volume of 200 µL. In one of the biodistribution experiments, mice were inoculated with 5 × 10^6 PC-3 cells (200 µL, 1:1 medium:Matrigel Matrix) as a negative control. The tumours were allowed to grow to reach a volume of 300–1500 mm^3 for the biodistribution studies and a volume of 30–300 mm^3 for the therapy studies, and tumour-bearing mice were randomised based on tumour size before radioligand injection. Mice were monitored 2–3 times per week for changes in body weight and tumour size and were euthanised by cervical dislocation if any of the following humane end points were reached: >20% weight loss from initial body weight, rapid weight loss (>10% within 2 days), tumours exceed 20 mm in any direction, ulcerate or interfere with normal behaviour, or any signs of severe sickness or discomfort.
At various time points after injection (from 15 min up to 48 h), organs/tissues were harvested, and radioligand uptake was calculated as a percentage of injected dose per gram tissue (%ID/g). Effective half-lives in selected organs were obtained by fitting monoexponential functions to the biodistribution data (Bq/g vs. time), normalised to 1 MBq/kg, (1) y(t)=a×e^−ln(2)×t/Teffective
The biological half-lives were then calculated by the following formula:(2) 1/Teffective=1/Tbiological+1/Tphysical

RM1-PGLS [9] = settings: cited from earlier work
C4-2 = settings: cited from earlier work; for TI: NOD-SCID gamma (C4-2), median survival, ref Stuparu et al., 2020 [59]; for Toxicity in treated mice: radiosensitive model, ref [59]
[10] = test system: subcutaneous tumour models; settings: 0.02–0.1 MBq; ref [59],[61]; cited from earlier work

O=C([O-])CN1CCN(CC(=O)[O-])CCN(CC(=O)NCC2CCC(C(=O)N[C@@H](Cc3ccc4ccccc4c3)C(=O)NCCCC[C@H](NC(=O)N[C@@H](CCC(=O)O)C(=O)O)C(=O)O)CC2)CCN(CC(=O)[O-])CC1.[177Lu+3] (stereo partly drawn) [^177Lu-PSMA-617]
Kidney Uptake (PC-3 PIP [1]; 1h): 9.8 ± 1.4 %ID/G
Tumour Uptake (PC-3 PIP [1]; 1h): 44.2 ± 12.0 %ID/G
Kidney Uptake (PC-3 PIP [1]; 4h): 3.4 ± 3.2 %ID/G
Tumour Uptake (PC-3 PIP [1]; 4h): 56.0 ± 8.0 %ID/G
Kidney Uptake (PC-3 PIP [1]; 24h): 0.8 ± 0.9 %ID/G
Tumour Uptake (PC-3 PIP [1]; 24h): 37.3 ± 5.8 %ID/G
Kidney Uptake (LNCaP [2]; 1h): 137.2 ± 77.8 %ID/G
Tumour Uptake (LNCaP [2]; 1h): 11.2 ± 4.2 %ID/G
Kidney Uptake (LNCaP [2]; 24h): 2.1 ± 1.4 %ID/G
Tumour Uptake (LNCaP [2]; 24h): 10.6 ± 4.5 %ID/G
Tumour level (tumour): 0.7 %ID/g
Kidney Uptake (LNCaP [3]; 1h): 97.2 ± 19.4 %ID/G
Tumour Uptake (LNCaP [3]; 1h): 15.1 ± 5.6 %ID/G
Kidney Uptake (LNCaP [3]; 4h): 26.6 ± 19.1 %ID/G
Tumour Uptake (LNCaP [3]; 4h): 14.5 ± 1.8 %ID/G
Kidney Uptake (LNCaP [3]; 24h): 0.6 ± 0.2 %ID/G
Tumour Uptake (LNCaP [3]; 24h): 10.9 ± 3.3 %ID/G
Tumour level (LNCaP [3]; after 5 days, ref Kuo et al. [30]): 7 %ID/g
TI (LNCaP [4]): 4.1
TI (RM1-PGLS [5]; 30 MBq (62 MBq/nmol)): 1.4
TI (RM1-PGLS [5]; 60 MBq (62 MBq/nmol)): 1.9
TI (RM1-PGLS [5]; 120 MBq (62 MBq/nmol)): 1.9
Kidney Uptake (LNCaP [6]; 4h): 14.1 ± 3.1 %ID/G
Tumour Uptake (LNCaP [6]; 4h): 14.4 ± 1.1 %ID/G
Kidney Uptake (LNCaP [6]; 24h): 0.7 ± 0.1 %ID/G
Tumour Uptake (LNCaP [6]; 24h): 4.6 ± 0.6 %ID/G
Tumour level (LNCaP [6]; after 4 days, ref Kelly et al. [32]): 3.5 %ID/g
TI (PC-3 PIP [7]; 2 MBq (2 MBq/nmol)): 1.1
TI (PC-3 PIP [7]; 5 MBq (5 MBq/nmol)): 1.8
TI (PC-3 PIP [8]): 3.9

[212Pb+2] [^212Pb^2+]
Uptake in kidneys (C4-2 xenografts; 1–8 h post injection): 34.2–49.0 %ID/g
Uptake in liver (C4-2 xenografts; 1–8 h post injection): 8.3–9.1 %ID/g
Uptake in bones (C4-2 xenografts; at 1–4 h): 7.3–10.4 %ID/g
Uptake in bones (C4-2 xenografts; at 8 h): 1.0–2.6 %ID/g

O=C([O-])CC[C@H](NC(=O)N[C@@H](CCCCNC(=O)[C@H](Cc1ccc2ccccc2c1)NC(=O)[C@H]1CC[C@H](CNC(=O)CN2CCN(CC(=O)[O-])CCN(CC(=O)[O-])CCN(CC(=O)[O-])CC2)CC1)C(=O)[O-])C(=O)[O-].[225Ac].[H+].[H+].[H+] [^225Ac-PSMA-617]
TI (RM1-PGLS [9]; 0.03 MBq (0.13 MBq/nmol), Athymic nude mice (RM1-PGLS), median survival, ref Czernin et al., 2020 [61]): 1.1
Toxicity in treated mice (RM1-PGLS [9]; 0.03 MBq, more radioresistant model, ref [61]): no signs of toxicity
TI (C4-2; 0.02 MBq (0.13 MBq/nmol)): 3.6
Toxicity in treated mice (C4-2; 0.02 and 0.04 MBq): transient weight loss
TI (C4-2; 0.04 MBq (0.13 MBq/nmol)): 6.7
TI (C4-2; 0.10 MBq (0.13 MBq/nmol)): 4.2
Toxicity in treated mice (C4-2; 0.10 MBq): severe weight loss
Therapeutic Index Range [10]: 1.1–6.7
